Assay results published in PubChem BioAssay AID1963858 (Molecular Pharmacology Branch, DTP, NCI, 2024).

System: HOP-62 multicell spheroids with HUVEC/MSC, viability
Assay: Anticancer human tumor HOP-62 cell line growth inhibition [KRAS2];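 also: viability read after a week of compound exposure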;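 as to viability, T/C: 100% = DMSO vehicle-treated spheroids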
Conditions: for IC50: curve of first compound; for viability, T/C: stronger effect = lower value
Text: Multicellular complex tumor spheroid response to RAS pathway inhibitors in combination with a targeted agents in patient-derived cell lines with oncogenic KRAS variants from multiple cancer types
A high-throughput screen of multi-cell type tumor spheroids was designed to identify active combinations of targeted small molecules and KRAS pathway inhibitors. Complex spheroids include a stromal component modeled by human endothelial cells (HUVEC) and fibroblasts modeled by human mesenchymal stem cells (MSCs). The concentration ranges selected for each drug and investigational agent were based upon clinically achievable concentrations if the clinical Cmax of the agent was known.
Compounds. The drugs and investigational agents: BI-3406 (NSC825286), BAY-293 (NSC824723), batoprotafib (TNO155; NSC825523), sotorasib (AMG 510; NSC818433), MRTX1257 (NSC819558), elimusertib (BAY 1895344; NSC800525), molibresib (GSK525762; NSC774829), temuterkib (LY3214996; NSC803410), venetoclax (NSC766270), alisertib (NSC759677), olaparib (NSC753686), talazoparib (NSC767125), erdafitinib (NSC781556), ipatasertib (NSC767898), cabozantinib (NSC761068), nintedanib (NSC756659), abemaciclib (NSC768073), docetaxel (NSC628503), trametinib (NSC758246), and sapanisertib (NSC764658) were obtained from the National Cancer Institute (NCI) Developmental Therapeutics Program Chemical Repository. The FDA-approved anticancer drug set is available from the Developmental Therapeutics Program. […] The stock solutions were prepared in dimethyl sulfoxide (DMSO, Sigma-Aldrich, St. Louis, MO, cat. D2650) at 800-fold the tested concentration and stored at -70 degrees C prior to their use. All drugs and investigational agents were tested over a range starting from a high concentration at or near the clinical Cmax and decreasing in half-log increments. If the clinical Cmax for an agent had not been determined, the highest concentration tested was 10 microM.
Cell Culture. All cells were maintained in an incubator at 37 degrees C and 5% CO2 with 95% humidity. The PDC lines were cultured according to standard operating procedures established by the NCI PDMR (https://pdmr.cancer.gov/sops/default.htm). Briefly, all PDCs were thawed and cultured in Matrigel-coated flasks prepared with a working solution of 1X Ham's F-12 nutrient mix, without supplementation (Invitrogen, Waltham, MA, cat. 11765054), 100 U/mL penicillin-streptomycin (Invitrogen, cat. 15140122), and 2.5% Matrigel (Corning Inc., Corning, NY, cat. 354248) for the first three passages. All PDCs were cultured in complete DMEM/F-12 media containing advanced DMEM/F-12 (Invitrogen, cat. 12634028), 4.9% defined fetal bovine serum, heat inactivated (HyClone Laboratories Inc., Logan, UT, cat. SH30070.03HI), 389 ng/mL hydrocortisone (Sigma-Aldrich, cat. H4001), 9.7 ng/mL human EGF recombinant protein (Invitrogen, cat. PHG0313), 23.4 microg/mL adenine (Sigma-Aldrich, cat. A2786), 97.3 U/mL penicillin-streptomycin (Invitrogen, cat. 15140122), 1.9 mM L-glutamine (Invitrogen, cat. 25030081), and 9.7 microM Y-27632 dihydrochloride (Tocris Bioscience, Bristol, United Kingdom, cat. 1254). The PDCs were cultured in complete DMEM/F12 media without 9.7 microM Y-27632 dihydrochloride for at least two passages prior to the screen. The established cell line HOP-62 was cultured in RPMI 1640 medium, HEPES (Invitrogen, cat. 22400105) with 10% defined fetal bovine serum (HyClone Laboratories Inc., cat. SH30070.03) and 2 mM L-glutamine (Invitrogen, cat. 25030081). The pooled donor HUVEC were cultured in endothelial cell growth medium 2 (PromoCell, Heidelberg, Germany, cat. C-22011) and the hMSC were cultured in mesenchymal stem cell growth medium 2 (PromoCell, cat. C-28009). For all experiments, HUVEC and hMSC were used at passages </=5, while the malignant cell lines were used at passages </=15. […]

[1] = second compound 0.1 µM, first compound 0.0316 µM
[2] = second compound 0.1 µM, first compound 0.1 µM
[3] = second compound 0.316 µM, first compound 0.0316 µM
[4] = second compound 0.316 µM, first compound 0.1 µM
[5] = second compound 1 µM, first compound 0.0316 µM
[6] = second compound 1 µM, first compound 0.1 µM
[7] = second compound 3.16 µM, first compound 0.0316 µM
[8] = second compound 3.16 µM, first compound 0.1 µM

## CN(C)C/C=C/C(=O)Nc1cc2c(Nc3ccc(F)c(Cl)c3)ncnc2cc1O[C@H]1CCOC1 + C=CC(=O)N1CCN(c2nc(OCC3CCCN3C)nc3c2CCN(c2cccc4cccc(C)c24)C3)CC1CC#N
Second compound 0.0316 µM
  IC50: > 100 nM
Second compound 0.1 µM
  IC50: > 100 nM
Second compound 0.316 µM
  IC50: 4.39 nM
Second compound 1 µM
  IC50: < 0.316 nM
Second compound 3.16 µM
  IC50: < 0.316 nM
Second compound 0.0316 µM, first compound 0.000316 µM
  viability, T/C: 111%
Second compound 0.0316 µM, first compound 0.001 µM
  viability, T/C: 105%
Second compound 0.0316 µM, first compound 0.00316 µM
  viability, T/C: 94.9%
Second compound 0.0316 µM, first compound 0.01 µM
  viability, T/C: 86%
Second compound 0.0316 µM, first compound 0.0316 µM
  viability, T/C: 99.3%
Second compound 0.0316 µM, first compound 0.1 µM
  viability, T/C: 89.6%
Second compound 0.1 µM, first compound 0.000316 µM
  viability, T/C: 69%
Second compound 0.1 µM, first compound 0.001 µM
  viability, T/C: 75.4%
Second compound 0.1 µM, first compound 0.00316 µM
  viability, T/C: 67.1%
Second compound 0.1 µM, first compound 0.01 µM
  viability, T/C: 61.5%
[1]
  viability, T/C: 67.4%
[2]
  viability, T/C: 61.2%
Second compound 0.316 µM, first compound 0.000316 µM
  viability, T/C: 57.4%
Second compound 0.316 µM, first compound 0.001 µM
  viability, T/C: 52.6%
Second compound 0.316 µM, first compound 0.00316 µM
  viability, T/C: 49.4%
Second compound 0.316 µM, first compound 0.01 µM
  viability, T/C: 48.8%
[3]
  viability, T/C: 46.8%
[4]
  viability, T/C: 42.1%
Second compound 1 µM, first compound 0.000316 µM
  viability, T/C: 42.8%
Second compound 1 µM, first compound 0.001 µM
  viability, T/C: 44.9%
Second compound 1 µM, first compound 0.00316 µM
  viability, T/C: 41%
Second compound 1 µM, first compound 0.01 µM
  viability, T/C: 37%
[5]
  viability, T/C: 31.5%
[6]
  viability, T/C: 32.2%
Second compound 3.16 µM, first compound 0.000316 µM
  viability, T/C: 22.5%
Second compound 3.16 µM, first compound 0.001 µM
  viability, T/C: 0.2%
Second compound 3.16 µM, first compound 0.00316 µM
  viability, T/C: 3.5%
Second compound 3.16 µM, first compound 0.01 µM
  viability, T/C: 6.01%
[7]
  viability, T/C: 17.6%
[8]
  viability, T/C: 13.5%

## Cn1nccc1Nc1nccc(-c2cc3c(s2)C(C)(C)N(CCN2CCOCC2)C3=O)n1 + COc1cc2nc(C)nc(NC(C)c3cc(N)cc(C(F)(F)F)c3)c2cc1OC1CCOC1
Second compound 0.1 µM
  IC50: 795 nM
Second compound 0.316 µM
  IC50: 801 nM
Second compound 1 µM
  IC50: 769 nM
Second compound 3.16 µM
  IC50: 389 nM
Second compound 10 µM
  IC50: 189 nM
[1]
  viability, T/C: 107%
[2]
  viability, T/C: 103%
Second compound 0.1 µM, first compound 0.316 µM
  viability, T/C: 76.2%
Second compound 0.1 µM, first compound 1 µM
  viability, T/C: 44.8%
Second compound 0.1 µM, first compound 3.16 µM
  viability, T/C: 25.2%
Second compound 0.1 µM, first compound 10 µM
  viability, T/C: 25.8%
[3]
  viability, T/C: 106%
[4]
  viability, T/C: 98.6%
Second compound 0.316 µM, first compound 0.316 µM
  viability, T/C: 77.9%
Second compound 0.316 µM, first compound 1 µM
  viability, T/C: 45%
Second compound 0.316 µM, first compound 3.16 µM
  viability, T/C: 20.6%
Second compound 0.316 µM, first compound 10 µM
  viability, T/C: 22.8%
[5]
  viability, T/C: 101%
[6]
  viability, T/C: 88.3%
Second compound 1 µM, first compound 0.316 µM
  viability, T/C: 67.9%
Second compound 1 µM, first compound 1 µM
  viability, T/C: 48%
Second compound 1 µM, first compound 3.16 µM
  viability, T/C: 22.1%
Second compound 1 µM, first compound 10 µM
  viability, T/C: 20.9%
[7]
  viability, T/C: 93.8%
[8]
  viability, T/C: 78.7%
Second compound 3.16 µM, first compound 0.316 µM
  viability, T/C: 54.2%
Second compound 3.16 µM, first compound 1 µM
  viability, T/C: 33.1%
Second compound 3.16 µM, first compound 3.16 µM
  viability, T/C: 22%
Second compound 3.16 µM, first compound 10 µM
  viability, T/C: 22.3%
Second compound 10 µM, first compound 0.0316 µM
  viability, T/C: 66.7%
Second compound 10 µM, first compound 0.1 µM
  viability, T/C: 60.4%
Second compound 10 µM, first compound 0.316 µM
  viability, T/C: 41.6%
Second compound 10 µM, first compound 1 µM
  viability, T/C: 28.2%
Second compound 10 µM, first compound 3.16 µM
  viability, T/C: 25.1%
Second compound 10 µM, first compound 10 µM
  viability, T/C: 24%
